Eight molecules from patent US10696677B2 (Research Triangle Institute, priority 2016, dated 2020) can be followed below.

Read-outs that look alike come from different tables or passages of the source.

Series [1] has as its target T1, hCB1 (Homo sapiens, UniProt P21554). Nature of the series: radioligand displacement binding at CB1 (membranes of CHO-K1 cells over-expressing receptor). The conditions noted are these: for CB2 Ki/CB1 Ki selectivity ratio: CB1 versus CB2.
Method: (§1) All compounds were characterized by H^1 NMR and evaluated using a calcium mobilization assay. […] Further characterization of select compounds was performed using radioligand displacement of [3H]1 and equilibrium dissociation constant (Ki) values were determined.
The next series relates to MDCK. Nature of the series: MDCK BBB Assay. The conditions noted are these: for % Permeable: MDCK BBB assay; for MDCK BBB Assay (Basolateral/Apical Peak Area Ratio) Mean: MDCK cells. In kind it is in vitro ADME.
Another series addresses hCB2 (Homo sapiens, UniProt P34972). Nature of the series: radioligand displacement binding at CB2 ([3H]CP55940, membranes of CHO-K1 cells over-expressing receptor).
Series [2] concerns the target T1, hCB1. Nature of the series: functional fluorescent CB1 activated Gαq16-coupled intracellular calcium mobilization assay in CHO-K1 cells. The note with it: average of 3-6 measurements, read-out: Apparent antagonist dissociation constant (Ke) at hCB1. Set-up: expressed in transfected cells; host or cells: CHO-K1 (membranes). In kind it is cell-based.
The mark [3] stands for this setting: read-out: Binding affinity (Ki) at hCB1, radioligand displacement, CHO-K1 membranes, average of 3-6 measurements.
Where [4] appears, read: read-out: Binding affinity (Ki) at hCB2, displacement of [3H]CP55940, CHO-K1 membranes, average of 3-6 measurements.

T1 sequence (P21554 whole entry): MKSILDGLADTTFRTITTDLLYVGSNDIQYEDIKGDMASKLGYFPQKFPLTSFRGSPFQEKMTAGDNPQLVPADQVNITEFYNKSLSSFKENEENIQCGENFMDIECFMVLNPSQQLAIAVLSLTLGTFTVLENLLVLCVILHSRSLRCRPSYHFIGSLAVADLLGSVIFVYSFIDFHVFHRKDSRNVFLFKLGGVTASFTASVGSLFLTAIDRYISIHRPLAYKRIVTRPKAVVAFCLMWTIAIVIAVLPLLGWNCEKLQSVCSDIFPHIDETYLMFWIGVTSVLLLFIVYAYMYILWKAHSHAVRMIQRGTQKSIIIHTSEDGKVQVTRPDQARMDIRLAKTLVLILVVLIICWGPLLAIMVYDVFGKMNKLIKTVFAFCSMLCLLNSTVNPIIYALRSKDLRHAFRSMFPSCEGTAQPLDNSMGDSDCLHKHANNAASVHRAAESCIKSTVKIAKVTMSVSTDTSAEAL
Chain of hCB2 (P34972 whole entry): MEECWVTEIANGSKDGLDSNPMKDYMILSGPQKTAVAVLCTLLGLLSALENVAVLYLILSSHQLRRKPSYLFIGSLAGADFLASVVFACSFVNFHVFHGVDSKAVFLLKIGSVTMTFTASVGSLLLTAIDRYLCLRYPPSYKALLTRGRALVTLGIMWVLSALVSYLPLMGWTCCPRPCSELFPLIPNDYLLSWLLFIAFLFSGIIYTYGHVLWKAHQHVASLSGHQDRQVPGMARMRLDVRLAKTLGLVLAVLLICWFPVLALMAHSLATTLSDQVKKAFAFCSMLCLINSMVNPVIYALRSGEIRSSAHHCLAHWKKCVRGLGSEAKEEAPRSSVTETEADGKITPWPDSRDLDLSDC
Method for hCB2: as §1

As for `N#Cc1ccc(N2CCN(c3ncnc4c3nc(-c3ccccc3Cl)n4-c3ccc(Cl)cc3)CC2)nc1` [Compound 3, 6-{4-[8-(2-Chlorophenyl)-9-(4-chlorophenyl)-9H-purin-6-yl]piperazin-1-yl}pyridine-3-carbonitrile], at hCB1 [1], the Ki was found to be 4.8 nM and the “CB2 Ki/CB1 Ki selectivity ratio” value is 101. Further, in the series on MDCK, the “% Permeable” value is 1% and the “MDCK BBB Assay (Basolateral/Apical Peak Area Ratio) Mean” value is listed as 0.005. Further, the Ki on hCB2 worked out at 484 nM. Moreover, the Kb on hCB1 [2] is 11.3 nM.
For `Clc1ccc(-n2c(-c3ccccc3Cl)nc3c(N4CCC(Nc5ccccn5)CC4)ncnc32)cc1` [Compound 32, N-{1-[8-(2-chlorophenyl)-9-(4-chlorophenyl)-9H-purin-6-yl]piperidin-4-yl}pyridin-2-amine], at hCB1 [1], the Ki amounted to 2 nM and the “CB2 Ki/CB1 Ki selectivity ratio” value was found to be 2300. In addition, in the series on MDCK, the “% Permeable” value came to 0% and the “MDCK BBB Assay (Basolateral/Apical Peak Area Ratio) Mean” value is listed as 0.001. At hCB2, affinity was put at a Ki of 4600 nM. Moreover, at hCB1 [2], the Kb stood at 54 nM.
For `CCCCC(=O)NC1(c2ccccc2)CCN(c2ncnc3c2nc(-c2ccncc2)n3-c2ccc(Cl)cc2)CC1` [Compound 55, N-{1-[9-(4-chlorophenyl)-8-pyridin-4-yl-9H-purin-6-yl]-4-phenylpiperidin-4-yl}pentanamide], on hCB1 [1], the Ki stood at 272 nM and the “CB2 Ki/CB1 Ki selectivity ratio” value is 5.8. The Ki on hCB2 came to 1570 nM. Further, the Kb at hCB1 [2] was determined as 869 nM.
At hCB1 [1], `Clc1ccc(-n2c(-c3ccccc3Cl)nc3c(N4CCN(c5ccc(OCc6ccccc6)cc5)CC4)ncnc32)cc1` [Compound 65, 6-{4-[4-(Benzyloxy)phenyl]piperazin-1-yl}-8-(2-chlorophenyl)-9-(4-chlorophenyl)-9H-purine] returned an inhibition constant Ki of 4.7 nM. In addition, in the series with MDCK, the “% Permeable” value is recorded as 8% and the “MDCK BBB Assay (Basolateral/Apical Peak Area Ratio) Mean” value is 0.082. Further, the “Binding affinity (Ki) at hCB2” value on hCB2 (displacement of [3H]CP55940, CHO-K1 membranes, average of 3-6 measurements) is “inactive”. Moreover, the Kb on hCB1 [2] was determined as 11.6 nM.
Take `CC(C)S(=O)(=O)N1CCN(c2ncnc3c2nc(-c2ccccc2Cl)n3-c2ccc(Cl)cc2)CC1` [Compound 80, 8-(2-Chlorophenyl)-9-(4-chlorophenyl)-6-{4-[(1-methylethyl)sulfonyl]piperazin-1-yl}-9H-purine]: the inhibitory constant (Ki) on hCB1 [1] (setting [3]) was 1.4 nM. In addition, in the series on MDCK, the “% Permeable” value was found to be 0% and the “MDCK BBB Assay (Basolateral/Apical Peak Area Ratio) Mean” value worked out at 0.000. In addition, at hCB2 (setting [4]), the Ki was 978 nM. Also, on hCB1 [2], the Kb is 1.5 nM.
Take `CCCCS(=O)(=O)N1CCN(c2ncnc3c2nc(-c2ccccc2Cl)n3-c2ccc(Cl)cc2)CC1` [Compound 81, 8-(2-Chlorophenyl)-9-(4-chlorophenyl)-6-[4-(butylsulfonyl)piperazin-1-yl]-9H-purine]: the “CB2 Ki/CB1 Ki selectivity ratio” value on hCB1 [1] turned out to be 871. For the same molecule, the inhibitory constant (Ki) on hCB1 [1] (setting [3]) was determined as 0.6 nM. In addition, in the series with MDCK, the “% Permeable” value is given as 5% and the “MDCK BBB Assay (Basolateral/Apical Peak Area Ratio) Mean” value worked out at 0.053. Moreover, the Ki on hCB2 (setting [4]) amounted to 505 nM. Also, the Kb on hCB1 [2] turned out to be 0.4 nM.
With `CC(C)CS(=O)(=O)N1CCN(c2ncnc3c2nc(-c2ccccc2Cl)n3-c2ccc(Cl)cc2)CC1` [Compound 82, 8-(2-Chlorophenyl)-9-(4-chlorophenyl)-6-{4-[(2-methylpropyl)sulfonyl]piperazin-1-yl}-9H-purine], the inhibition constant Ki at hCB1 [1] (setting [3]) was 2 nM; at hCB2, 2840 nM. In addition, in the series with MDCK, the “% Permeable” value is recorded as 0%. Also, on hCB1 [2], the Kb is 0.2 nM.
In the case of `CCCCC(=O)NC1CCN(c2ncnc3c2nc(-c2ccncc2C)n3-c2ccc(Cl)cc2)CC1` [Compound 90, N-{1-[9-(4-chlorophenyl)-8-(3-methylpyridin-4-yl)-9H-purin-6-yl]piperidin-4-yl}pentanamide], on hCB1 [1], the Ki is 12.1 nM and the “CB2 Ki/CB1 Ki selectivity ratio” value is reported as 51. Also, in the series with MDCK, the “% Permeable” value is 38% and the “MDCK BBB Assay (Basolateral/Apical Peak Area Ratio) Mean” value worked out at 0.379. This molecule gave a Ki on hCB2 of 620 nM. In addition, on hCB1 [2], the Kb came to 42.2 nM.
